Source: ChEMBL document CHEMBL1157418, “Synthesis and antitumor activity evaluations of albumin-binding prodrugs of CC-1065 analog” (Bioorg Med Chem, 2008)
The source made the active and inactive calls. The rule behind the calls is not given here.

Experiments:
MC-38 [1] = test: Antitumor activity in BDF1 mouse bearing colon 38 cells assessed as cell death at 0.15 mg/kg, iv daily 4 times for 3 days; assay type: functional
[2] = Antitumor activity in BALB/c mouse bearing JC cells assessed as cell death at 0.25 mg/kg, iv daily 4 times for 2 days; assay type: functional
[3] = Antitumor activity in BALB/c mouse bearing JC cells assessed as maximum weight loss at 0.25 mg/kg, iv daily 4 times for 2 days; assay type: functional
L1210 [4] = test: Antitumor activity in BDF1 mouse bearing mouse L1210 cells assessed as increase of life span at 0.4 mg/kg, iv; assay type: functional
[5] = Antitumor activity in BALB/c mouse bearing JC cells assessed as cell death at 0.16 mg/kg, iv daily 4 times for 3 days; assay type: functional
MC-38 [6] = test: Antitumor activity in BDF1 mouse bearing colon 38 cells assessed as cell death at 0.3 mg/kg, iv daily 4 times for 2 days; assay type: functional
MC-38 [7] = test: Antitumor activity in BDF1 mouse bearing colon 38 cells assessed as tumor growth inhibition at 0.15 mg/kg, iv daily 4 times for 3 days; assay type: functional; details: MC-38, 72 h, read-out: TGI
L1210 [8] = test: Antitumor activity in BDF1 mouse bearing mouse L1210 cells assessed as increase of life span at 0.2 mg/kg, iv; assay type: functional
L1210 [9] = test: Cell cycle arrest in mouse L1210 cells by increase in accumulation at S phase at 0.1 ug/mL after 3 hrs by flow cytometry relative to control; assay type: functional, cell-based
L1210 [10] = test: Cell cycle arrest in mouse L1210 cells by increase in accumulation at G2/M phase at 0.01-0.1 ug/mL after 24 hrs by flow cytometry; assay type: functional, cell-based
[11] = Antitumor activity in BALB/c mouse bearing JC cells assessed as tumor growth inhibition at 0.20 mg/kg, iv daily 4 times for 3 days; assay type: functional; details: 72 h, read-out: TGI
[12] = Antitumor activity in BALB/c mouse bearing JC cells assessed as cell death at 0.20 mg/kg, iv daily 4 times for 3 days; assay type: functional; details: dose 0.2 mg/kg
L1210 [13] = test: Antitumor activity in BDF1 mouse bearing mouse L1210 cells assessed as increase of life span at 0.1 mg/kg, iv; assay type: functional
[14] = Antitumor activity in BALB/c mouse bearing JC cells assessed as maximum weight loss at 0.16 mg/kg, iv daily 4 times for 3 days; assay type: functional
L1210 [15] = test: Cell cycle arrest in mouse L1210 cells by accumulation at G2/M phase at 0.1 ug/ml after 24 hrs by flow cytometry; assay type: functional, cell-based
MC-38 [16] = test: Antitumor activity in BDF1 mouse bearing colon 38 cells assessed as maximum weight loss at 0.15 mg/kg, iv daily 4 times for 3 days; assay type: functional
L1210 [17] = test: Antitumor activity in BDF1 mouse bearing mouse L1210 cells assessed as increase of life span at 0.05 mg/kg, iv; assay type: functional
SK-OV-3 [18] = test: Antitumor activity against human SKOV3 cells assessed as inhibition of [3H]thymidine uptake after 72 hrs; assay type: functional, cell-based
[19] = Antitumor activity in BALB/c mouse bearing JC cells assessed as tumor growth inhibition at 0.16 mg/kg, iv daily 4 times for 3 days; assay type: functional; details: 72 h, read-out: TGI
MC-38 [20] = test: Antitumor activity in BDF1 mouse bearing colon 38 cells assessed as maximum weight loss at 0.3 mg/kg, iv daily 4 times for 2 days; assay type: functional
[21] = Antitumor activity in BALB/c mouse bearing JC cells assessed as maximum weight loss at 0.20 mg/kg, iv daily 4 times for 3 days; assay type: functional; details: dose 0.2 mg/kg
L1210 [22] = test: Cell cycle arrest in mouse L1210 cells by increase in accumulation at S phase at 0.01-0.1 ug/mL after 24 hrs by flow cytometry; assay type: functional, cell-based
L1210 [23] = test: Cell cycle arrest in mouse L1210 cells by increase in accumulation at S phase at 0.1 ug/mL after 12 hrs by flow cytometry; assay type: functional, cell-based
SK-OV-3 [24] = test: Anticancer activity in CD1 mouse xenografted with human SKOV3 cells assessed as tumor growth inhibition at 0.13 mg/kg, iv; assay type: functional; details: read-out: TGI
MC-38 [25] = test: Antitumor activity in BDF1 mouse bearing colon 38 cells assessed as tumor growth inhibition at 0.3 mg/kg, iv daily 4 times for 2 days; assay type: functional; details: MC-38, 48 h, read-out: TGI
L1210 [26] = test: Cell cycle arrest in mouse L1210 cells by decrease in accumulation at G1 phase at 0.01-0.1 ug/mL after 24 hrs by flow cytometry; assay type: functional, cell-based
[27] = Antitumor activity in BALB/c mouse bearing JC cells assessed as tumor growth inhibition at 0.25 mg/kg, iv daily 4 times for 2 days; assay type: functional; details: 48 h, read-out: TGI
SK-OV-3 [28] = test: Anticancer activity in CD1 mouse xenografted with human SKOV3 cells assessed as weight change at 0.13 mg/kg, iv; assay type: functional
L1210 [29] = test: Antitumor activity against mouse L1210 cells assessed as inhibition of [3H]thymidine uptake after 48 hrs; assay type: functional, cell-based
L1210 [30] = test: Cell cycle arrest in mouse L1210 cells by accumulation at S phase at 0.1 ug/ml after 24 hrs by flow cytometry; assay type: functional, cell-based
L1210 [31] = test: Antitumor activity against mouse L1210 cells; assay type: functional, cell-based
MC-38 [32] = test: Antitumor activity in BDF1 mouse bearing colon 38 cells assessed as maximum weight loss at 0.05 mg/kg, iv daily 4 times for 3 days; assay type: functional
MC-38 [33] = test: Antitumor activity in BDF1 mouse bearing colon 38 cells assessed as cell death at 0.05 mg/kg, iv daily 4 times for 3 days; assay type: functional
MC-38 [34] = test: Antitumor activity in BDF1 mouse bearing colon 38 cells assessed as tumor growth inhibition at 0.05 mg/kg, iv daily 4 times for 3 days; assay type: functional; details: MC-38, 72 h, read-out: TGI
SK-OV-3 [35] = test: Anticancer activity in CD1 mouse xenografted with human SKOV3 cells assessed as tumor growth inhibition at 25 mg/kg, ip; assay type: functional; details: SK-OV-3, ip, route intraperitoneal, read-out: TGI
SK-OV-3 [36] = test: Anticancer activity in CD1 mouse xenografted with human SKOV3 cells assessed as weight change at 25 mg/kg, ip; assay type: functional; details: route intraperitoneal
SK-OV-3 [37] = test: Anticancer activity in CD1 mouse xenografted with human SKOV3 cells assessed as tumor growth inhibition at 5 mg/kg, iv; assay type: functional; details: read-out: TGI
L1210 [38] = test: Cell cycle arrest in mouse L1210 cells by accumulation at G2/M phase at 1 ug/ml after 12 hrs by flow cytometry; assay type: functional, cell-based
L1210 [39] = test: Antitumor activity in BDF1 mouse bearing mouse L1210 cells assessed as increase of life span at 10 mg/kg, iv; assay type: functional
[40] = Antitumor activity in BALB/c mouse bearing JC cells assessed as maximum weight loss at 8.0 mg/kg, iv daily 4 times for 3 days; assay type: functional
SK-OV-3 [41] = test: Anticancer activity in CD1 mouse xenografted with human SKOV3 cells assessed as weight change at 5 mg/kg, iv; assay type: functional
[42] = Antitumor activity in BALB/c mouse bearing JC cells assessed as cell death at 8.0 mg/kg, iv daily 4 times for 3 days; assay type: functional
[43] = Antitumor activity in BALB/c mouse bearing JC cells assessed as tumor growth inhibition at 8.0 mg/kg, iv daily 4 times for 3 days; assay type: functional; details: 72 h, read-out: TGI

O=C(CCCCCN1C(=O)C=CC1=O)Oc1cc2c(c3ccccc13)[C@H](CCl)CN2C(=O)c1cc2cc(NC(=O)c3cc4cc(F)ccc4[nH]3)ccc2[nH]1
LCK (MC-38 [1]): 2.3
LCK [2]: 2
Activity [3]: -21%
Activity (L1210 [4]): 133%
LCK [5]: 1.5
LCK (MC-38 [6]): 2.6
inhibition in vivo at 0.15 mg/kg (MC-38 [7]): 99%
Activity (L1210 [8]): 107%
Activity (L1210 [9]): Active
Activity (L1210 [10]): Active
inhibition in vivo at 0.2 mg/kg [11]: 98%
LCK [12]: 1.9
Activity (L1210 [13]): 51%
Activity [14]: -19%
Activity (L1210 [15]): Active
Activity (MC-38 [16]): -10%
Activity (L1210 [17]): 40%
IC50 (SK-OV-3 [18]): 34 nM
inhibition in vivo at 0.16 mg/kg [19]: 93%
Activity (MC-38 [20]): -25%
Activity [21]: -23%
Activity (L1210 [22]): Active
Activity (L1210 [23]): Active
inhibition in vivo at 0.13 mg/kg (SK-OV-3 [24]): 52%
inhibition in vivo at 0.3 mg/kg (MC-38 [25]): 99%
Activity (L1210 [26]): Active
inhibition in vivo at 0.25 mg/kg [27]: 98%
Activity (SK-OV-3 [28]): -3%
IC50 (L1210 [29]): 25 nM
Activity (L1210 [30]): Active

O=C(Nc1ccc2[nH]c(C(=O)N3C[C@@H](CCl)c4c3cc(O)c3ccccc43)cc2c1)c1cc2cc(F)ccc2[nH]1
IC50 (L1210 [31]): 0.29 nM
Activity (L1210 [9]): Active
Activity (MC-38 [32]): -7%
Activity (L1210 [10]): Active
Activity (L1210 [15]): Active
IC50 (SK-OV-3 [18]): 14 nM
Activity (L1210 [22]): Active
LCK (MC-38 [33]): 0.68
Activity (L1210 [23]): Active
inhibition in vivo at 0.05 mg/kg (MC-38 [34]): 76%
Activity (L1210 [26]): Active
IC50 (L1210 [29]): 0.17 nM
Activity (L1210 [30]): Active

CC/C=C\C/C=C\C/C=C\C/C=C\C/C=C\C/C=C\CCC(=O)O [DOCONEXENT]
IC50 (L1210 [31]): 13 nM

CC(=O)O[C@H]1C(=O)[C@@]2(C)[C@H]([C@H](OC(=O)c3ccccc3)[C@]3(O)C[C@H](OC(=O)[C@H](O)[C@@H](NC(=O)c4ccccc4)c4ccccc4)C(C)=C1C3(C)C)[C@]1(OC(C)=O)CO[C@@H]1C[C@@H]2O [PACLITAXEL]
inhibition in vivo at 25 mg/kg (SK-OV-3 [35]): 22%
Activity (SK-OV-3 [36]): -1%

COc1cccc2c1C(=O)c1c(O)c3c(c(O)c1C2=O)C[C@@](O)(C(=O)CO)C[C@@H]3O[C@H]1C[C@H](N)[C@H](O)[C@H](C)O1 [DOXORUBICIN]
inhibition in vivo at 5 mg/kg (SK-OV-3 [37]): 39%
Activity (L1210 [38]): Active
Activity (L1210 [39]): 85%
Activity [40]: -25%
Activity (SK-OV-3 [41]): -4%
LCK [42]: 0.78
IC50 (L1210 [29]): 182 nM
inhibition in vivo at 8 mg/kg [43]: 82%
